Data published in patent US12233130B2, “Covalently-modified steroid acid-peptides having enhanced stability and/or biological activity” (DEFENCE THERAPEUTICS INC., priority 2022, dated 2025).
Positions of bridges follow the written chain, without caps; N, C: chain ends. Residues, ends and D or L forms follow the SMILES beside them. Chains are numbered I, II in the order given. *: point of attachment. Chenodeoxycholyl = C[C@H](CCC(=O)*)[C@H]1CC[C@H]2[C@@H]3[C@H](O)C[C@@H]4C[C@H](O)CC[C@]4(C)[C@H]3CC[C@]12C

Assays:
[1] = test system: 4T1, EL4, CT-26, B16 and E0771 tumor cell lines; experiment: Cell death by flow cytometry on five tumor cell lines; type: cell-based; conditions: 95 and 190 μM
Procedure: Apoptosis analysis was conducted by flow-cytometry. Briefly, target cells were first treated then washed. Treated cells were then re-suspended in Annexin-V staining buffer prior to staining with Annexin-V and propidium iodine (PI). Fifteen minutes later, cells were washed prior to analysis using BD FACS™ Diva on CANTOII™.

[2] = Stability testing (impurities by HPLC); type: physicochemical; conditions: dimer vs monomer
From the text: GMP synthesis of the CDCA-C-SV40 monomer yielded a white powder and the results of initial stability testing is summarized below:
As shown above, two main impurities were detected by HPLC relating to the reactivity of the free thiol group of the CDCA-C-SV40 monomer, namely impurities resulting from oxidation of the thiol group (Impurity A) and the formation an intermolecular disulfide bond via the thiol groups of two CDCA-C-SV40 monomers, producing a (CDCA-C-SV40)2 dimer (Impurity B).
To attempt to improve stability, the synthesis protocol of CDCA-C-SV40 was modified to produce the conjugate directly in its dimerized form (Impurity B). […] At 25° C., total impurities rose only slightly from 1.6% at Day 0 to 2.1% after 3 months. At 40° C., total impurities rose from 1.6% at Day 0 to 1.7% after 5 days, 2.4% after 10 days, and to 3.7% after 30 days.

[3] = test system: JIMT-1 breast cancer cells; experiment: Cell cytotoxicity assay (PrestoBlue); type: cell-based
Procedure: 50 mg of CDCA-C-SV40 monomers (or other steroid acid-peptide monomers) were resuspended in 200-500 μL of DMSO. 10 eq of N,N-Diisopropylethylamine (DIPEA) was added to the mixture and incubated in a thermomixer at 37° C. with agitation (1000 rpm) overnight, enabling dimerization of the monomers via their N-terminal cysteine thiol groups to produce (CDCA-C-SV40)2 or other dimers. The samples were then analyzed by UPLC-MS to evaluate dimer formation efficiency. Cell toxicity was evaluated via a Cell Toxicity assay (PrestoBlue™).
In a T75 flask of confluent JIMT-1 cells (at least 75%), the culture medium was removed, and 2 mL of trypsin was then added and incubated at 37° C. for about 5 minutes or until the cells detached. The trypsin was inactivated by adding 10 mL of culture medium, the cells were centrifuged at 950 rpm for 5 minutes at 4° C., viable cells were visualized with trypan blue and counted using a hematocytometer. Cells were then plated in a 96-well plate at 5000 cells/well and incubated at 37° C. for 24 hours. Trastuzumab-(CDCA-C-SV40)2 or T-DM1-(CDCA-C-SV40)2 was then added to the cells and incubated for 72 hours at 37° C. […] Fluorescence (excitation: 535-560 nm, emission: 590-615 nm) was measured. The cells were further incubated for another 30 minutes, and a second fluorescence reading was taken.

SMILES	cytotoxicity [1]	stability relative to corresponding monomer [2]	cytotoxicity of dimerized version vs monomer [3]
CC(C)[C@H](NC(=O)[C@H](CCCCN)NC(=O)[C@H](CCCNC(=N)N)NC(=O)[C@H](CCCCN)NC(=O)[C@H](CCCCN)NC(=O)[C@H](CCCCN)NC(=O)[C@@H]1CCCN1C(=O)CNC(=O)[C@H](Cc1ccc(O)cc1)NC(=O)CNC(=O)[C@H](CSSC[C@H](NC(=O)CC[C@@H](C)[C@H]1CC[C@H]2[C@@H]3[C@H](O)C[C@@H]4C[C@H](O)CC[C@]4(C)[C@H]3CC[C@]12C)C(=O)NCC(=O)N[C@@H](Cc1ccc(O)cc1)C(=O)NCC(=O)N1CCC[C@H]1C(=O)N[C@@H](CCCCN)C(=O)N[C@@H](CCCCN)C(=O)N[C@@H](CCCCN)C(=O)N[C@@H](CCCNC(=N)N)C(=O)N[C@@H](CCCCN)C(=O)N[C@H](C(=O)NCC(=O)NCC(=O)O)C(C)C)NC(=O)CC[C@@H](C)[C@H]1CC[C@H]2[C@@H]3[C@H](O)C[C@@H]4C[C@H](O)CC[C@]4(C)[C@H]3CC[C@]12C)C(=O)NCC(=O)NCC(=O)O [(CDCA-C-SV40)2] (I: Chenodeoxycholyl-CGYGPKKKRKVGG-OH / II: Chenodeoxycholyl-CGYGPKKKRKVGG-OH; disulfide I:1-II:1)	potent cytotoxicity	markedly higher stability	–
CC(C)[C@H](NC(=O)[C@H](CCCCN)NC(=O)CNC(=O)[C@H](Cc1ccc(O)cc1)NC(=O)CNC(=O)[C@H](CO)NC(=O)[C@H](CSSC[C@H](NC(=O)CC[C@@H](C)[C@H]1CC[C@H]2[C@@H]3[C@H](O)C[C@@H]4C[C@H](O)CC[C@]4(C)[C@H]3CC[C@]12C)C(=O)N[C@@H](CO)C(=O)NCC(=O)N[C@@H](Cc1ccc(O)cc1)C(=O)NCC(=O)N[C@@H](CCCCN)C(=O)N[C@H](C(=O)N[C@@H](CO)C(=O)N[C@@H](CCCNC(=N)N)C(=O)N[C@@H](CCCNC(=N)N)C(=O)NCC(=O)NCC(=O)N[C@@H](Cc1c[nH]cn1)C(=O)N[C@@H](CCC(N)=O)C(=O)N[C@@H](CC(N)=O)C(=O)N[C@@H](CO)C(=O)N[C@@H](Cc1ccc(O)cc1)C(=O)N[C@@H](CCCCN)C(=O)N1CCC[C@H]1C(=O)N[C@@H](Cc1ccc(O)cc1)C(=O)O)C(C)C)NC(=O)CC[C@@H](C)[C@H]1CC[C@H]2[C@@H]3[C@H](O)C[C@@H]4C[C@H](O)CC[C@]4(C)[C@H]3CC[C@]12C)C(=O)N[C@@H](CO)C(=O)N[C@@H](CCCNC(=N)N)C(=O)N[C@@H](CCCNC(=N)N)C(=O)NCC(=O)NCC(=O)N[C@@H](Cc1c[nH]cn1)C(=O)N[C@@H](CCC(N)=O)C(=O)N[C@@H](CC(N)=O)C(=O)N[C@@H](CO)C(=O)N[C@@H](Cc1ccc(O)cc1)C(=O)N[C@@H](CCCCN)C(=O)N1CCC[C@H]1C(=O)N[C@@H](Cc1ccc(O)cc1)C(=O)O [(CDCA-C-hnRNP D NLS)2] (I: Chenodeoxycholyl-CSGYGKVSRRGGHQNSYKPY-OH / II: Chenodeoxycholyl-CSGYGKVSRRGGHQNSYKPY-OH; disulfide I:1-II:1)	–	–	enhancement of cytotoxicity
